Measured values from paper PMC8151276, “An Integrated Approach toward NanoBRET Tracers for Analysis of GPCR Ligand Engagement” (Molecules, 2021).
One block for each molecule: values may come before it.

Columns and labels:
AGTR2 = target: T1, AGTR2 (Homo sapiens, UniProt P50052); experiment: NanoBRET screen HiBiT-AGTR2 in HEK293; assay type: binding
T1 construct: purchased Promega (in-house HiBiT-GPCR construct library, NanoBRET)
T1 sequence (P50052 1-363): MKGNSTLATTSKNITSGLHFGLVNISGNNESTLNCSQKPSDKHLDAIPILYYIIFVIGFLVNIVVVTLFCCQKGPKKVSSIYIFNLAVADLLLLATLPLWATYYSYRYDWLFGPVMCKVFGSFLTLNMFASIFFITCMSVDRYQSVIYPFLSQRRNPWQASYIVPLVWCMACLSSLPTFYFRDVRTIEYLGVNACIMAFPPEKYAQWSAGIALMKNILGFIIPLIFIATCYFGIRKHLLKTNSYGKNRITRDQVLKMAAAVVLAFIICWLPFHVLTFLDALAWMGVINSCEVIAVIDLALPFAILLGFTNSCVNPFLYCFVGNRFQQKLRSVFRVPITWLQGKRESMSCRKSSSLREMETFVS
Protocol: (§1) Each tracer candidate was screened across the entire library of HiBiT-GPCR constructs using NanoBRET as the detection modality. As depicted in Figure 4A, the specificity of interactions was evaluated through decrease in BRET due to competitive displacement of a bound tracer by excess parental compound. Each tracer was analyzed for binding to each HiBiT-GPCR fusion in the absence and in the presence of competing parental compound. Briefly, HEK293 cells were transfected with HiBiT-GPCR constructs diluted into promoterless DNA to reduce expression and maximize translocation to the cell surface. Each tracer candidate was then screened at concentrations of 1 μM and 0.1 μM across cells expressing these fusions. Cells were treated for 1.5 h with tracer either alone or in the presence of 20 μM competing parental compound (i.e., control). BRET was measured upon addition of purified LgBiT and subsequent complementation with HiBiT genetically fused to a GPCR. The specificity of interactions was assessed through a decrease in BRET signal due to competitive displacement of the bound tracer. To further gauge the robustness of these interactions, the fold response over the control (i.e., BRETtracer/BRETcontrol) was calculated. We chose a 1.5-fold response, which translates to ≥7-fold signal over noise as the minimal threshold required to score an interaction as positive. […]. Below we highlight the screening results obtained for our exemplary fluorescent tracers based on Clozapine, Amitriptyline and AZD1283.
(§2) HiBiT-GPCR DNA constructs were diluted in 10 mM Tris pH 8 to a final concentration of 0.01 μg/μL, arrayed in 96-well plates and stored at −20 °C. For transfection, HEK293 cells were suspended in Opti-MEM (without phenol red) supplemented with 2% fetal bovine serum (Seradigm) and 100 units/mL penicillin–streptomycin (Gibco) at a final concentration of 220,000 cells/mL and dispensed into white 96-well plates at 90 μL/well. Subsequent transfections and screens were carried using an Agilent Bravo Automated Liquid Handling Platform. First, the 96-well HiBiT DNA arrays were diluted 25-fold in Opti-MEM (without serum or phenol red) to a final concentration of 0.0004 μg/μL and 20 μL of the diluted DNAs were transferred into new 96-well plates. Next, promoterless carrier DNA (1 μg/μL) was diluted 25-fold (0.04 μg/μL) and then dispensed into the diluted arrays at 20 μL/well. Following brief mixing, Viafect transfection reagent (Promega) diluted 16-fold into Opti-MEM was dispensed into the plates at 40 μL/well. After mixing by pipetting, plates were incubated for 10 min on the pipetting station deck. The DNA-transfection reagent complexes were then added to plates containing cells. To facilitate the screen, 10 μL of DNA-transfection reagent complexes were added in duplicates to the top 4 and bottom 4 rows, resulting in two identical 48-well arrays per plate. Plates with transfected cells were incubated for 18–20 h at 37 °C/5% CO2. A screen of each tracer across the entire library using two different concentrations requires duplicate plates of transfected cells. Depending on the number of tracers being screened, transfections can be scaled up using the same ratios. The next day, for each tracer, four 20× screening solutions in tracer dilution buffer (Promega) were prepared: two duplicates at final concentration of 20 μM and two duplicates at a final concentration of 2 μM. A competing unmodified compound was added to one of each duplicate at a final concentration of 400 μM. The four resulting solutions were diluted 4-fold in Opti-MEM without serum or phenol red to generate 5× solutions (5 µM and 0.5 µM tracer +/− 100 μM competing compound). To screen the library, a BioTek MultiFlo FX liquid dispenser was used to dispense 22.5 µL of tracer solution to the top 4 rows and 22.5 µL tracer + competing compound solution to the 4 bottom rows. Plates were briefly mixed on an orbital shaker and incubated for 1.5 h at room temperature. […]

CCR9 = target: T2, CCR9 (Homo sapiens, UniProt P51686); experiment: NanoBRET screen HiBiT-CCR9 in HEK293; assay type: binding
T2 construct: purchased Promega (in-house HiBiT-GPCR construct library, NanoBRET)
T2 sequence (P51686 1-369): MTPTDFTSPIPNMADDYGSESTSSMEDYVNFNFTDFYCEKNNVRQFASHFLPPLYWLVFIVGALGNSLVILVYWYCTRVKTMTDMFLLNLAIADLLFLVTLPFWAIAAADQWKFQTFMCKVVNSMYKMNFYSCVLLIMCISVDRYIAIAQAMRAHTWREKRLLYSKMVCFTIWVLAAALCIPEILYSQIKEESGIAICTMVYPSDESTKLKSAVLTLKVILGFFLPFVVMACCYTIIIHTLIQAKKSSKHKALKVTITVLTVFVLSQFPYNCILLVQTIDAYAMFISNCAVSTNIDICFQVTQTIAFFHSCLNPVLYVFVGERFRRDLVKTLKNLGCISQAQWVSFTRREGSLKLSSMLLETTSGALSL
Protocol: as §1, §2

NanoBRET Fold Response (AGTR2; 0.1μM tracer): 1.23 | NanoBRET Fold Response (AGTR2; 1μM tracer): 0.87 | NanoBRET Fold Response (CCR9; 0.1μM tracer): 1.05 | NanoBRET Fold Response (CCR9; 1μM tracer): 1.04
Compound: COc1ccc2c(n1)c(CCNC(C)=O)cn2CCNC(=O)CCc1ccc2n1[B-](F)(F)[N+]1=C(c3ccc[nH]3)C=CC1=C2 [Azamelatonin-1-NB590]

Compound: CC(C)N(CC[C@H](c1ccccc1)c1cc(CCNC(=O)c2ccc(CNC(=O)CCc3ccc4n3[B-](F)(F)[N+]3=C(c5ccc[nH]5)C=CC3=C4)cc2)ccc1O)C(C)C [Tolterodine-BZ-NB590]
NanoBRET Fold Response (AGTR2; AGTR2, tracer 0.1μM): 0.96 | NanoBRET Fold Response (AGTR2; AGTR2, tracer 1μM): 0.95 | NanoBRET Fold Response (CCR9; CCR9, tracer 0.1μM): 0.74 | NanoBRET Fold Response (CCR9; CCR9, tracer 1μM): 1.14

Compound: CN1CCN(C2=Nc3cc(Cl)ccc3Nc3ccc(CNC(=O)CCOCCOCCOCCOCCNC(=O)CCc4ccc5n4[B-](F)(F)[N+]4=C(c6ccc[nH]6)C=CC4=C5)cc32)CC1 [Clozapine-b-2-NB590]
NanoBRET Fold Response (AGTR2; AGTR2, 0.1μM tracer): 1.03 | NanoBRET Fold Response (AGTR2; AGTR2, 1μM tracer): 0.95 | NanoBRET Fold Response (CCR9; CCR9, 0.1μM tracer): 1.01 | NanoBRET Fold Response (CCR9; CCR9, 1μM tracer): 0.92
